Measured values from PMC7070407, “Moringin, A Stable Isothiocyanate from Moringa oleifera, Activates the Somatosensory and Pain Receptor TRPA1 Channel In Vitro” (Molecules, 2020).

Legend:
rat TRPA1 = biological target: T1, rat TRPA1 (Rattus norvegicus, UniProt Q6RI86); assay: Elevation of intracellular Ca2+ (Fluo-4) in HEK-293 cells stably transfected with rat TRPA1; agonist and antagonist/desensitizing behaviour; format: cell-based
T1 construct: expressed in transfected cells; host or cells: HEK-293
T1 sequence (Q6RI86 whole entry): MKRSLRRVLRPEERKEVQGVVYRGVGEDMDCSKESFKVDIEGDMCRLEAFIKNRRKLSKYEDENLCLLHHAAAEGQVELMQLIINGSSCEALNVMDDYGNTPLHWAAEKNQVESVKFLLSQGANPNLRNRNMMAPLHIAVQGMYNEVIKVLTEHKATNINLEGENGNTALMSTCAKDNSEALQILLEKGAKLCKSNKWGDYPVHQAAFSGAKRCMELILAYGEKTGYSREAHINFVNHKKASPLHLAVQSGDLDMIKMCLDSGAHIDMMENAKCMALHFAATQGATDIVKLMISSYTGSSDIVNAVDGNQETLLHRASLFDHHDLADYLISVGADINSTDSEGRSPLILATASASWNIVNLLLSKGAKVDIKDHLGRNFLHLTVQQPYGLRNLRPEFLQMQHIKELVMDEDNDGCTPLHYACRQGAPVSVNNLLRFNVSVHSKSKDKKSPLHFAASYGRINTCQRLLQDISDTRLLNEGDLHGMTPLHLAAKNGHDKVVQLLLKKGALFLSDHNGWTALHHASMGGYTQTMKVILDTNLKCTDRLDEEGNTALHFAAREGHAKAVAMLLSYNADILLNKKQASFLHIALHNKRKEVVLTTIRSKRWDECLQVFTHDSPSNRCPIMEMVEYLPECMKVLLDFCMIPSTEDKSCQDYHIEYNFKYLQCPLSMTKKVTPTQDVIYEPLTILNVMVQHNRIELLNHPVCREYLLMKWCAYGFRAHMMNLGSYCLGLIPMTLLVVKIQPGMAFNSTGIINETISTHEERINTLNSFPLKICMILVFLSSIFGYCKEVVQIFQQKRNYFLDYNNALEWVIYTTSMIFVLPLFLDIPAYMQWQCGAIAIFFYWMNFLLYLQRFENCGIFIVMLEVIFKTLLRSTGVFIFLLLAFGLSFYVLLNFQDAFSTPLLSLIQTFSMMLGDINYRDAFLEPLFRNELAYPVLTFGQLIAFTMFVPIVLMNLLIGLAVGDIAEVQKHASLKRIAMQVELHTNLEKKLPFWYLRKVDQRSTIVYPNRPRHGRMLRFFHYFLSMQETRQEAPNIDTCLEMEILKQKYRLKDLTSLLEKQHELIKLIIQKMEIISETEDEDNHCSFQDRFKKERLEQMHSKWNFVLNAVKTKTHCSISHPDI
Description: Assay of rat TRPA1, TRPV2, TRPV3, TRPV4, TRPM8 or human TRPV1 mediated elevation of intracellular Ca^2+ in transfected HEK-293 cells are been performed as described. Briefly, human embryonic kidney (HEK-293) cells, stably transfected with rat TRPA1, TRPV2, TRPV3, TRPV4, TRPM8 or human TRPV1 (selected by Geneticin 600 μg mL^−1) or not transfected, were cultured in EMEM + 2 mM Glutamine + 1% Non-Essential Amino Acids (NEAA) + 10% FBS and maintained at 37 °C with 5% CO2. Stable transfections were checked by quantitative real-time polymerase chain reaction (PCR), quantitative real-time PCR was performed by an iCycler-iQ (Bio-Rad, Hercules, CA, USA) in a 20 μL reaction mixture containing the following: 10 μL iQ SYBR Green Supermix 2X (Bio-Rad), 20 ng of cDNA (calculated on the basis of the retro-transcribed RNA), and 330 nM for each primer. Optimized primers for SYBR Green analysis (and relative TaOpt) and optimum annealing temperatures were designed by Allele-Id software version 7.0 (Biosoft International, Palo Alto, CA, USA) and were synthesized (HPLC-purification grade) by MWG-Biotech AG (Ebersberg, Germany). Assays were performed in quadruplicate (maximal ΔCt of replicate samples, <0.5). Relative expression analysis, correct for PCR efficiency and normalized with respect to reference genes β-actin and glyceraldehyde 3-phosphate dehydrogenase, was performed by GENEX software (Bio-Rad). […] The day of the experiment the cells were loaded with Fluo-4 AM (4 μM in DMSO containing 0.02% Pluronic F-127) for 1 h in the dark at room temperature, rinsed and resuspended in Tyrode’s solution (145 mM NaCl, 2.5 mM KCl, 1.5 mM CaCl2, 1.2 mM MgCl2, 10 mM D-glucose, and 10 mM HEPES, pH 7.4), finally transferred to a quartz cuvette of a spectrofluorimeter (Perkin-Elmer LS50B; λEX = 488 nm, λEM = 516 nm) equipped with PTP-1 Fluorescence Peltier System (PerkinElmer Life and Analytical Sciences, Waltham, MA, USA) under continuous stirring. Cell fluorescence before and after the addition of various concentrations of test compounds and extracts were measured normalizing the effects against the response to ionomycin (4 µM). The values of the effect on [Ca^2+]i in HEK-293 cells not transfected are used as baseline and subtracted from the values obtained from transfected cells. […] The potency of the compounds (EC50 values) are determined as the concentration required to produce half-maximal increases in [Ca^2+]i. In TRPV3 assay TRPV3-expressing HEK293 cells were first sensitized with the structurally unrelated agonist 2-aminoethoxydiphenyl borate (100 μM). Antagonist/desensitizing behaviour is evaluated against the agonist of the TRP analyzed by adding the compounds directly in the quartz cuvette 5 min before stimulation of cells with the agonist. […] In order to assess functional antagonism of TRPA1 channels, AP18, 4-(4-chlorophenyl)-3-methyl-3-buten-2-one oxime […] Dose-response curve fitting (sigmoidal dose-response variable slope) and parameter estimation were performed with Graph-Pad Prism8® (GraphPad Software Inc., San Diego, CA, USA). All determinations were performed at least in triplicate.

rat TRPV4 = biological target: T2, rat TRPV4 (Rattus norvegicus, UniProt Q9ERZ8); assay: Elevation of intracellular Ca2+ (Fluo-4) in HEK-293 cells stably transfected with rat TRPV4; format: cell-based
T2 construct: expressed in transfected cells; host or cells: HEK-293
T2 sequence (Q9ERZ8 whole entry): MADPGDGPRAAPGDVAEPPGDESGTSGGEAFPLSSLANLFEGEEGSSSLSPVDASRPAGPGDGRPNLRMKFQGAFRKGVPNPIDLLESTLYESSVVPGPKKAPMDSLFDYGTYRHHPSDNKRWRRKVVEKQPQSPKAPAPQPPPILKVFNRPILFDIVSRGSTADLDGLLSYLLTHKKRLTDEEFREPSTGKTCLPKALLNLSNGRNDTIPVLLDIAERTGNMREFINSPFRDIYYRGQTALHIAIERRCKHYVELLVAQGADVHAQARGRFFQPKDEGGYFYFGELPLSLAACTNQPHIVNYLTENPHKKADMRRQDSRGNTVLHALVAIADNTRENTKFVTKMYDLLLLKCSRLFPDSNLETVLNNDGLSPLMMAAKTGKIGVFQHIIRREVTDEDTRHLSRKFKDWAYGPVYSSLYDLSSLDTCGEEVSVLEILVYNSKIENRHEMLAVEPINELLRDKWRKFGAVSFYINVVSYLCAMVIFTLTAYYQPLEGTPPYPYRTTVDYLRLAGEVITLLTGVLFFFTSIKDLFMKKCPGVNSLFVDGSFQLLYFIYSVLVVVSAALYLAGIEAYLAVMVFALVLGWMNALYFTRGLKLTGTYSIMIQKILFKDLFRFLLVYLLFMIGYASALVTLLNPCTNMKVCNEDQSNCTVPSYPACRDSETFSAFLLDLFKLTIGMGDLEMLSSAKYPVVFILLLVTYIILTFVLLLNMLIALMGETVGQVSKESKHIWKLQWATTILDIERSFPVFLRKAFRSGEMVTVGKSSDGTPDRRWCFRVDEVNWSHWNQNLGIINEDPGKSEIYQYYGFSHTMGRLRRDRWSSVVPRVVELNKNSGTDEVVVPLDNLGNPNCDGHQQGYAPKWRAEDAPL
Description: (§1) Assay of rat TRPA1, TRPV2, TRPV3, TRPV4, TRPM8 or human TRPV1 mediated elevation of intracellular Ca^2+ in transfected HEK-293 cells are been performed as described. Briefly, human embryonic kidney (HEK-293) cells, stably transfected with rat TRPA1, TRPV2, TRPV3, TRPV4, TRPM8 or human TRPV1 (selected by Geneticin 600 μg mL^−1) or not transfected, were cultured in EMEM + 2 mM Glutamine + 1% Non-Essential Amino Acids (NEAA) + 10% FBS and maintained at 37 °C with 5% CO2. Stable transfections were checked by quantitative real-time polymerase chain reaction (PCR), quantitative real-time PCR was performed by an iCycler-iQ (Bio-Rad, Hercules, CA, USA) in a 20 μL reaction mixture containing the following: 10 μL iQ SYBR Green Supermix 2X (Bio-Rad), 20 ng of cDNA (calculated on the basis of the retro-transcribed RNA), and 330 nM for each primer. […] The day of the experiment the cells were loaded with Fluo-4 AM (4 μM in DMSO containing 0.02% Pluronic F-127) for 1 h in the dark at room temperature, rinsed and resuspended in Tyrode’s solution (145 mM NaCl, 2.5 mM KCl, 1.5 mM CaCl2, 1.2 mM MgCl2, 10 mM D-glucose, and 10 mM HEPES, pH 7.4), finally transferred to a quartz cuvette of a spectrofluorimeter (Perkin-Elmer LS50B; λEX = 488 nm, λEM = 516 nm) equipped with PTP-1 Fluorescence Peltier System (PerkinElmer Life and Analytical Sciences, Waltham, MA, USA) under continuous stirring. […]

[1] = tested on: Amyotrophic Lateral Sclerosis (ALS) transgenic model; set-up: method as in PMID 26075221; settings: cited from earlier work
rat TRPM8 = biological target: T3, rat TRPM8 (Rattus norvegicus, UniProt Q8R455); assay: Elevation of intracellular Ca2+ (Fluo-4) in HEK-293 cells stably transfected with rat TRPM8; format: cell-based
T3 construct: expressed in transfected cells; host or cells: HEK-293
T3 sequence (Q8R455 whole entry): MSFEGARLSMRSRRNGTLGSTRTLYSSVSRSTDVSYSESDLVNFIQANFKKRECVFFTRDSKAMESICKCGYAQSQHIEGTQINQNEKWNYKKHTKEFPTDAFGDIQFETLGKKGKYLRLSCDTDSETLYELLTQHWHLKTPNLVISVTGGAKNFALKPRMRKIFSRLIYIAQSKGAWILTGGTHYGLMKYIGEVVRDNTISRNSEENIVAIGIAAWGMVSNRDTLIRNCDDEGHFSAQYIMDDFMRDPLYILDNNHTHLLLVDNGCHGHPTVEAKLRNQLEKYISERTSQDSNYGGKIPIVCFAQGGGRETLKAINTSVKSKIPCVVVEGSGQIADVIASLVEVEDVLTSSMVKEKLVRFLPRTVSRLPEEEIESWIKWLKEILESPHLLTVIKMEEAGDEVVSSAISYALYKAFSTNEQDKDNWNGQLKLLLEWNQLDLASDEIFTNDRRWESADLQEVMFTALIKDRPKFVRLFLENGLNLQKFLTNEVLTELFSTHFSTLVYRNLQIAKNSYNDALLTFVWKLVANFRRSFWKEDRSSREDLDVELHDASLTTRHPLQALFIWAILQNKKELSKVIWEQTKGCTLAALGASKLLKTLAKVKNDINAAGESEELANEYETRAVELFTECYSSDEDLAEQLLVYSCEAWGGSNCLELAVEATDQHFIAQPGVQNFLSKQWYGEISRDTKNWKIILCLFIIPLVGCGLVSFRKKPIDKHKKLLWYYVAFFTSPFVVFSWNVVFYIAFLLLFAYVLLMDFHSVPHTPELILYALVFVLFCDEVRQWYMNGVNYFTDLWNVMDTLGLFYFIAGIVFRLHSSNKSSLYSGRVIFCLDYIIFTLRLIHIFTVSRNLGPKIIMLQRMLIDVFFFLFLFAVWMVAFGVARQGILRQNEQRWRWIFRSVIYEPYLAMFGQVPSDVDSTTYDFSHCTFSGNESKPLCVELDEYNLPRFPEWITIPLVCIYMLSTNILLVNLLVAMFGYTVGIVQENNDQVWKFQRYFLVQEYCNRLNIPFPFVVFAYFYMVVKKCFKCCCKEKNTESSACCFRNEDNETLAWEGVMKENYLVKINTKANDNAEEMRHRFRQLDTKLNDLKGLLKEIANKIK
Description: as §1

C[C@@H]1O[C@@H](Oc2ccc(CN=C=S)cc2)[C@H](O)[C@H](O)[C@H]1O [Moringin, 4-[(α-L-rhamnosyloxy)benzyl]isothiocyanate]
EC50 (rat TRPA1): 3.14 ± 0.16 µM
IC50 (rat TRPA1): 3.6 ± 0.05 µM
Effect of AITC 100 μM administered after pre-incubation with moringin (rat TRPA1; TRPA1-HEK293 cells, pre-incubation with moringin 50 μM): completely inhibited
Efficacy (% AITC 100 µM) (rat TRPA1; rTRPA1-HEK-293, percentage of the effect on [Ca2+]i of AITC 100 µM): 102.6 ± 1.1%
IC50 (rat TRPV4): > 100 µM
Delay of the disease onset [1]: about two weeks
IC50 (rat TRPM8): > 100 µM
